Measurements: patent US8232308B2, “Methods for treating a disease in which Rho kinase is involved” (UBE Industries, Ltd., priority 2003, dated 2012)
Structures can show the parent of a compound that is named as a salt.

Assays:
activated ROCK II = target: T1, activated ROCK II (Rattus norvegicus, UniProt Q62868); assay: Test for Evaluation of Inhibiting Activity to Rho Kinase; type: biochemical; settings: S6 Kinase Substrate Peptide, [γ-32P]ATP, 30° C. for 15 minutes, Ki=IC50/(1+S/Km)
T1 construct: purchased Upstate Biotechnology 14-338
T1 sequence (Q62868 11-550 limits assumed): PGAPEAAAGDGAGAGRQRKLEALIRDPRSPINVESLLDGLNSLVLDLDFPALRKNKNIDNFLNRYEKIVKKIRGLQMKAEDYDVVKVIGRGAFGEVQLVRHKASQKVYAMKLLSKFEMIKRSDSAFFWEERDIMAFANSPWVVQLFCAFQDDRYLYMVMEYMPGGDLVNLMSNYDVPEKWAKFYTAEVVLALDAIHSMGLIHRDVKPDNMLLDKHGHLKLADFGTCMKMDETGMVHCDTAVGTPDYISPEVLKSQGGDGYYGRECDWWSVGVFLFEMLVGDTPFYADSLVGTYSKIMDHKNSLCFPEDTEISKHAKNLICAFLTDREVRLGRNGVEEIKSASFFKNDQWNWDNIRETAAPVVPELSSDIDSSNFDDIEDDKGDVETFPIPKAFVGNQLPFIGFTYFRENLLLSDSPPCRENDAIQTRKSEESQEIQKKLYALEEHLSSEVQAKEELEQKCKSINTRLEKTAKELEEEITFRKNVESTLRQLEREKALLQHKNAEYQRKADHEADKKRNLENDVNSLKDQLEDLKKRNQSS

Compound | melting point | Ki (activated ROCK II)
CC(C)(N)c1ccc(-c2ccc3[nH]ncc3c2-c2ccncc2)cc1 (as salt: hydrochloride) [Compound 5-61, 5-[4-(1-Amino-1-methylethyl)phenyl]-4-(pyridin-4-yl)-1H-indazole trihydrochloride] | 266 to 269 °C (dec.) | 
CC(C)(N)c1ccc(-c2ccc3[nH]ncc3c2-c2ccccn2)cc1 (as salt: hydrochloride) [Compound 5-63, 5-[4-(1-Amino-1-methylethyl)phenyl]-4-(pyridin-2-yl)-1H-indazole trihydrochloride] | 210 to 214 °C (dec.) | 
CC(C)(N)c1ccc(-c2ccc3[nH]ncc3c2-c2cn[nH]c2)cc1 (as salt: hydrochloride) [Compound 5-64, 5-[4-(1-Amino-1-methylethyl)phenyl]-4-(pyrazol-4-yl)-1H-indazole trihydrochloride] | 259 to 267 °C (dec.) | 
CC(C)(N)c1ccc(-c2ccc3[nH]ncc3c2-c2cnco2)cc1 (as salt: hydrochloride) [Compound 5-66, 5-[4-(1-Amino-1-methylethyl)phenyl]-4-(oxazol-5-yl)-1H-indazole dihydrochloride] | 212 to 214 °C (dec.) | 
CC(C)(N)c1ccc(-c2ccc3[nH]ncc3c2-c2ccno2)cc1 (as salt: hydrochloride) [Compound 5-68, 5-[4-(1-Amino-1-methylethyl)phenyl]-4-(isoxazol-5-yl)-1H-indazole dihydrochloride] | 256 to 258 °C (dec.) | 
CC(C)(N)c1ccc(-c2ccc3[nH]ncc3c2O)nc1 (as salt: hydrochloride) [Compound 5-69, 5-[5-(1-Amino-1-methylethyl)pyridin-2-yl]-4-hydroxy-1H-indazole trihydrochloride] | 255 to 260 °C (dec.) | 
C=C(C)c1n[nH]c2ccc(-c3ccc(C(C)(C)N)cc3)cc12 (as salt: trifluoroacetate) [Compound 5-15, 5-[4-(1-Amino-1-methylethyl)phenyl]-3-(1-methyl-vinyl)-1H-indazole monotrifluoroacetate] | 221 to 225 °C (dec.) | 
CN(C)/C=C/C(=O)c1c(-c2ccc(C(C)(C)NC(=O)OC(C)(C)C)cc2)ccc2nn(C3CCCCO3)cc12 (centres unmarked) [Compound 29, 5-[4-(1-tert-butoxycarbonylamino-1-methylethyl)phenyl]-4-(3-dimethylaminoacryloyl)-2-(tetra-hydropyran-2-yl)-2H-indazole] | 191 to 194 °C | 
CC(C)(C)OC(=O)NC(C)(C)c1ccc(-c2ccc3nn(C4CCCCO4)cc3c2-c2cc[nH]n2)cc1 (centres unmarked) [Compound 30, 5-[4-(1-tert-butoxycarbonylamino-1-methylethyl)phenyl]-4-(pyrazol-3-yl)-2-(tetrahydropyran-2-yl)-2H-indazole] | 99 to 105 °C | 

Next, values leading:

melting point | Ki (activated ROCK II) | Compound
203 to 205 °C (dec.) |  | CC(C)(N)c1ccc(-c2ccc3[nH]ncc3c2OC2CC2)nc1 (as salt: hydrochloride) [Compound 5-70, 5-[5-(1-Amino-1-methylethyl)pyridin-2-yl]-4-cyclo-propyloxy-1H-indazole trihydrochloride]
207 to 209 °C (dec.) |  | CCC(N)(CC)c1ccc(-c2ccc3[nH]ncc3c2OC2CC2)nc1 (as salt: hydrochloride) [Compound 5-71, 5-[5-(1-Amino-1-ethylpropyl)pyridin-2-yl]-4-cyclo-propyloxy-1H-indazole trihydrochloride]
234 to 237 °C |  | CCC(N)(CC)c1ccc(-c2ccc3[nH]ncc3c2OC(F)F)cc1 (as salt: hydrochloride) [Compound 5-72, 5-[4-(1-Amino-1-ethylpropyl)phenyl]-4-difluoro-methoxy-1H-indazole dihydrochloride]
270 to 272 °C (dec.) | 146 nM | CC(C)(N)c1ccc(-c2ccc3[nH]ncc3c2OCC2CC2)nc1.Cl.Cl.Cl [Compound 5-73, 5-[5-(1-Amino-1-methylethyl)pyridin-2-yl]-4-cyclo-propylmethyloxy-1H-indazole trihydrochloride]
